Measurements taken from ChEMBL document CHEMBL1150005, “Reduced amide bond neurotensin 813 mimetics with potent in vivo activity” (Bioorg Med Chem Lett, 1995).
Numbered stars: 1 amine (or outer) side, 2 acyl side, 3 side chain; on linkers, the order of the positions; unused ones are H or OH. Square brackets hold non-standard residues; d marks the D form. Peptide text beside a SMILES is read from it. * marks the point of attachment. X3 = NCCCC[C@@H](C(=O)[*:2])N(C[C@@H](N)CCCN=C(N)N)[*:1]; X1 = NCCCC[C@H](N)CN([C@@H](CCCCN)C(=O)[*:2])[*:1]; X2 = NCCCCCCN([C@@H](CCCCN)C(=O)[*:2])[*:1]; X6 = N=C(N)NCCCC(CCCNC(=N)N)C(=O)*; X7 = NC(N)=NCCCC(CCCN=C(N)N)C(=O)*; NMeR = CN[C@@H](CCCNC(=N)N)C(=O)O; Tle = CC(C)(C)[C@H](N)C(=O)O; X4 = NCCCCC(CCCCN)C(=O)*; X5 = NCCCC(CCCN)C(=O)*

Assays:
HT-29 = assay: Compound was tested in vitro to mobilize calcium from HT-29 cells; assay type: functional, cell-based; settings: Homo sapiens
Mus musculus [1] = assay: Analgesic activity was evaluated in the acetic acid induced stretching paradigm after subcutaneous administration; assay type: functional; settings: sc
Mus musculus [2] = assay: Compound was tested in vivo for its ability to inhibit spontaneous locomotor activity of mice; intraperitoneal administration; assay type: functional; settings: ip
Mus musculus [3] = assay: Compound was tested in vivo for its ability to inhibit spontaneous locomotor activity of mice after intraperitoneal administration; assay type: functional; settings: ip
[4] = target: T1, Neurotensin receptor type 1 (Mus musculus, UniProt O88319); assay: Binding affinity for Neurotensin Receptor
T1 sequence (O88319 whole entry): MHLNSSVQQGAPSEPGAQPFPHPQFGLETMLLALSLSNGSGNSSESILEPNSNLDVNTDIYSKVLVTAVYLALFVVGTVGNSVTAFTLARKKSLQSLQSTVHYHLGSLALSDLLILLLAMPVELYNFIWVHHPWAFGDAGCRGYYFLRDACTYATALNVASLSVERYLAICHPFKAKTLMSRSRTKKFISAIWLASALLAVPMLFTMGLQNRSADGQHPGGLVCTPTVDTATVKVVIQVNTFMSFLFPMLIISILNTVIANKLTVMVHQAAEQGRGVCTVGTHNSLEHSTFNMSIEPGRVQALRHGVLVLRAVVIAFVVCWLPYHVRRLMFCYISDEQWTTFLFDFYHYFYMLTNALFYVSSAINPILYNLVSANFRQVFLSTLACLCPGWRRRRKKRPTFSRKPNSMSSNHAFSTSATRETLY

[5] = target: T1, Neurotensin receptor type 1; assay: Compound was tested in vitro for its binding affinity against Neurotensin Receptor […]
Mus musculus [6] = assay: Compound was tested in vivo for its ability to inhibit spontaneous locomotor activity of mice after intracerebroventricular administration; assay type: functional; settings: central

| SMILES | ED50 (Mus musculus [3]) | Ki [4] | also measured |
| --- | --- | --- | --- |
| CC[C@H](C)[C@H](NC(=O)[C@H](Cc1ccc(O)cc1)NC(=O)[C@@H]1CCCN1C(=O)[C@H](CCCNC(=N)N)NC(=O)[C@@H](N)CCCNC(=N)N)C(=O)N[C@@H](CC(C)C)C(=O)O [listing 1 of 2 here] | – | – | EC50 (HT-29): 4.21 nM |
| CC[C@H](C)[C@H](NC(=O)[C@H](Cc1ccc(O)cc1)NC(=O)[C@@H]1CCCN1C(=O)[C@H](CCCNC(=N)N)NC(=O)[C@@H](N)CCCNC(=N)N)C(=O)N[C@@H](CC(C)C)C(=O)O [listing 2 of 2 here] | – | – | ED50 (Mus musculus [1]): > 10 mg/kg; ED50 (Mus musculus [2]): > 10 mg/kg |
| CC(C)C[C@H](NC(=O)[C@@H](NC(=O)[C@H](Cc1c[nH]c2ccccc12)NC(=O)[C@@H]1CCCN1C(=O)[C@@H](N)CCCCN)C(C)(C)C)C(=O)O (H-KPW[Tle]L-OH) | > 10 mg/kg | 60 nM | – |
| CN[C@@H](CCCNC(=N)N)C(=O)N[C@@H](CCCCN)C(=O)N1CCC[C@H]1C(=O)N[C@@H](Cc1c[nH]c2ccccc12)C(=O)N[C@H](C(=O)N[C@@H](CC(C)C)C(=O)O)C(C)(C)C (H-[NMeR]KPW[Tle]L-OH) | – | – | Ki [5]: 0.064 nM |
| CC[C@H](C)[C@H](NC(=O)[C@H](Cc1c[nH]c2ccccc12)NC(=O)[C@@H]1CCCN1C(=O)[C@H](CCCCN)NC[C@@H](N)CCCCN)C(=O)N[C@@H](CC(C)C)C(=O)O (H-[X1]PWIL-OH) [listing 1 of 2 here] | – | 0.06 nM | EC50 (HT-29): 110 nM |
| CC[C@H](C)[C@H](NC(=O)[C@H](Cc1c[nH]c2ccccc12)NC(=O)[C@@H]1CCCN1C(=O)[C@H](CCCCN)NC[C@@H](N)CCCCN)C(=O)N[C@@H](CC(C)C)C(=O)O (H-[X1]PWIL-OH) [listing 2 of 2 here] | 6.3 mg/kg | – | – |
| CCOC(=O)[C@H](CC(C)C)NC(=O)[C@@H](NC(=O)[C@H](Cc1c[nH]c2ccccc12)NC(=O)[C@@H]1CCCN1C(=O)[C@H](CCCCN)NC[C@@H](N)CCCCN)C(C)(C)C (H-[X1]PW[Tle]L-OEt) [listing 1 of 2 here] | – | 31.2 nM | EC50 (HT-29): 4500 nM |
| CCOC(=O)[C@H](CC(C)C)NC(=O)[C@@H](NC(=O)[C@H](Cc1c[nH]c2ccccc12)NC(=O)[C@@H]1CCCN1C(=O)[C@H](CCCCN)NC[C@@H](N)CCCCN)C(C)(C)C (H-[X1]PW[Tle]L-OEt) [listing 2 of 2 here] | 0.21 mg/kg | – | – |
| CC(C)C[C@H](NC(=O)[C@@H](NC(=O)[C@H](Cc1c[nH]c2ccccc12)NC(=O)[C@@H]1CCCN1C(=O)[C@H](CCCCN)NC[C@@H](N)CCCCN)C(C)(C)C)C(=O)O (H-[X1]PW[Tle]L-OH) [listing 1 of 2 here] | – | 1.13 nM | EC50 (HT-29): 362 nM |
| CC(C)C[C@H](NC(=O)[C@@H](NC(=O)[C@H](Cc1c[nH]c2ccccc12)NC(=O)[C@@H]1CCCN1C(=O)[C@H](CCCCN)NC[C@@H](N)CCCCN)C(C)(C)C)C(=O)O (H-[X1]PW[Tle]L-OH) [listing 2 of 2 here] | 0.14 mg/kg | – | – |
| CC[C@H](C)[C@H](NC(=O)[C@H](Cc1ccc(O)cc1)NC(=O)[C@@H]1CCCN1C(=O)[C@H](CCCCN)NC[C@@H](N)CCCCN)C(=O)N[C@@H](CC(C)C)C(=O)O (H-[X1]PYIL-OH) [listing 1 of 2 here] | – | 0.15 nM | – |
| CC[C@H](C)[C@H](NC(=O)[C@H](Cc1ccc(O)cc1)NC(=O)[C@@H]1CCCN1C(=O)[C@H](CCCCN)NC[C@@H](N)CCCCN)C(=O)N[C@@H](CC(C)C)C(=O)O (H-[X1]PYIL-OH) [listing 2 of 2 here] | > 10 mg/kg | – | – |
| CC(C)C[C@H](NC(=O)[C@@H](NC(=O)[C@H](Cc1ccc(O)cc1)NC(=O)[C@@H]1CCCN1C(=O)[C@H](CCCCN)NC[C@@H](N)CCCCN)C(C)(C)C)C(=O)O (H-[X1]PY[Tle]L-OH) [listing 1 of 2 here] | – | 0.4 nM | EC50 (HT-29): 512 nM |
| CC(C)C[C@H](NC(=O)[C@@H](NC(=O)[C@H](Cc1ccc(O)cc1)NC(=O)[C@@H]1CCCN1C(=O)[C@H](CCCCN)NC[C@@H](N)CCCCN)C(C)(C)C)C(=O)O (H-[X1]PY[Tle]L-OH) [listing 2 of 2 here] | 0.9 mg/kg | – | – |
| CCOC(=O)[C@H](CC(C)C)NC(=O)[C@@H](NC(=O)[C@H](Cc1c[nH]c2ccccc12)NC(=O)[C@@H]1CCCN1C(=O)[C@H](CCCCN)NCCCCCCN)C(C)(C)C (H-[X2]PW[Tle]L-OEt) [listing 1 of 2 here] | – | 27 nM | – |
| CCOC(=O)[C@H](CC(C)C)NC(=O)[C@@H](NC(=O)[C@H](Cc1c[nH]c2ccccc12)NC(=O)[C@@H]1CCCN1C(=O)[C@H](CCCCN)NCCCCCCN)C(C)(C)C (H-[X2]PW[Tle]L-OEt) [listing 2 of 2 here] | – | – | ED50 (Mus musculus [1]): 0.05 mg/kg; ED50 (Mus musculus [2]): 0.3 mg/kg |
| CCOC(=O)[C@H](CC(C)C)NC(=O)[C@@H](NC(=O)[C@H](Cc1c[nH]c2ccccc12)NC(=O)[C@@H]1CCCN1C(=O)[C@H](CCCCN)NC[C@@H](N)CCCN=C(N)N)C(C)(C)C (H-[X3]PW[Tle]L-OEt) [listing 1 of 2 here] | – | 437 nM | – |
| CCOC(=O)[C@H](CC(C)C)NC(=O)[C@@H](NC(=O)[C@H](Cc1c[nH]c2ccccc12)NC(=O)[C@@H]1CCCN1C(=O)[C@H](CCCCN)NC[C@@H](N)CCCN=C(N)N)C(C)(C)C (H-[X3]PW[Tle]L-OEt) [listing 2 of 2 here] | – | – | ED50 (Mus musculus [6]): 1.6 mg/kg; ED50 (Mus musculus [2]): 0.15 mg/kg |
| CC(C)C[C@H](NC(=O)[C@@H](NC(=O)[C@H](Cc1c[nH]c2ccccc12)NC(=O)[C@@H]1CCCN1C(=O)[C@H](CCCCN)NC[C@@H](N)CCCN=C(N)N)C(C)(C)C)C(=O)O (H-[X3]PW[Tle]L-OH) [listing 1 of 2 here] | – | 17.1 nM | – |
| CC(C)C[C@H](NC(=O)[C@@H](NC(=O)[C@H](Cc1c[nH]c2ccccc12)NC(=O)[C@@H]1CCCN1C(=O)[C@H](CCCCN)NC[C@@H](N)CCCN=C(N)N)C(C)(C)C)C(=O)O (H-[X3]PW[Tle]L-OH) [listing 2 of 2 here] | – | – | ED50 (Mus musculus [1]): 0.3 mg/kg; ED50 (Mus musculus [2]): 0.48 mg/kg |
| CC(C)C[C@H](NC(=O)[C@@H](NC(=O)[C@H](Cc1c[nH]c2ccccc12)NC(=O)[C@@H]1CCCN1C(=O)C(CCCCN)CCCCN)C(C)(C)C)C(=O)O (X4-PW[Tle]L-OH) [listing 1 of 2 here] | – | 3.8 nM | – |
| CC(C)C[C@H](NC(=O)[C@@H](NC(=O)[C@H](Cc1c[nH]c2ccccc12)NC(=O)[C@@H]1CCCN1C(=O)C(CCCCN)CCCCN)C(C)(C)C)C(=O)O (X4-PW[Tle]L-OH) [listing 2 of 2 here] | 0.6 mg/kg | – | – |
| CC(C)C[C@H](NC(=O)[C@@H](NC(=O)[C@H](Cc1c[nH]c2ccccc12)NC(=O)[C@@H]1CCCN1C(=O)C(CCCN)CCCN)C(C)(C)C)C(=O)O (X5-PW[Tle]L-OH) [listing 1 of 2 here] | – | 17 nM | – |
| CC(C)C[C@H](NC(=O)[C@@H](NC(=O)[C@H](Cc1c[nH]c2ccccc12)NC(=O)[C@@H]1CCCN1C(=O)C(CCCN)CCCN)C(C)(C)C)C(=O)O (X5-PW[Tle]L-OH) [listing 2 of 2 here] | 0.5 mg/kg | – | – |
| CC(C)C[C@H](NC(=O)[C@@H](NC(=O)[C@H](Cc1c[nH]c2ccccc12)NC(=O)[C@@H]1CCCN1C(=O)C(CCCNC(=N)N)CCCNC(=N)N)C(C)(C)C)C(=O)O (stereo partly drawn) (X6-PW[Tle]L-OH) | – | 0.1 nM | – |
| CC(C)C[C@H](NC(=O)[C@@H](NC(=O)[C@H](Cc1c[nH]c2ccccc12)NC(=O)[C@@H]1CCCN1C(=O)C(CCCN=C(N)N)CCCN=C(N)N)C(C)(C)C)C(=O)O (X7-PW[Tle]L-OH) | 1.5 mg/kg | – | – |
